Reference: publication PMC10262914 (Bioorganic chemistry, 2022)
Values after ≈ are worked out from the molar mass of the structure shown. Values joined by “and” are separate entries in the source; they are usually repeats but may differ in a detail not shown here. Identical values can stand only once. Like-named read-outs stand apart in the source and are kept apart here.

Experiments:
[1] = tested on: Mycobacterium tuberculosis H37Rv; assay: Alamar blue metabolic readout assay; assay type: cell-based; settings: for GAS MIC: M. tuberculosis H37Rv; for MIC: Mycobacterium tuberculosis, H37RV, read-out: GAS MIC
[2] = tested on: Mycobacterium tuberculosis H37Rv; assay: Alamar blue metabolic readout assay; assay type: cell-based; settings: for MIC: Mycobacterium tuberculosis, H37RV, read-out: 7H12 MIC; for 7H12 MIC: M. tuberculosis H37Rv
[3] = tested on: Mycobacterium tuberculosis H37Rv; assay: Low oxygen recovery assay; assay type: cell-based; settings: Mycobacterium tuberculosis, H37RV, read-out: LORA MIC
[4] = tested on: VERO cells (kidney epithelial cells); assay: Toxicity against VERO cells; assay type: cell-based
[5] = mouse, microsomes
[6] = microsomes
[7] = human, microsomes
[8] = rat, microsomes
[9] = dog, microsomes
in vitro [10] = settings: mouse, microsomes, pH 7.4
in vitro [11] = settings: monkey, microsomes, pH 7.4
in vitro [12] = settings: human, microsomes, pH 7.4
in vitro [13] = settings: rat, microsomes, pH 7.4
in vitro [14] = settings: dog, microsomes, pH 7.4
[15] = tested on: Mycobacterium tuberculosis H37Rv; assay: Alamar blue assay, MIC stated as range over GAS and 7H12 media; assay type: cell-based; settings: for MIC (range over both media): H37Rv
[16] = Chlorocebus sabaeus, Vero, read-out: Vero IC50, toxicity against Vero cells

Row | Compound | GAS MIC ([1]; GAS media) | MIC [1] [µM] | MIC [2] [µM] | MIC [3] [µM] | IC50 [4, 16] [µM] | 7H12 MIC ([2]; 7H12 media) | other results
1 | [2H]c1c(C([2H])([2H])[2H])c([2H])n2c(C(=O)NCc3ccc(F)cc3)c(C)nc2c1[2H] [Compound 29, N-(4-Fluorobenzyl)-2-methyl-6-(methyl-d3)imidazo[1,2-a]pyridine-5,7,8-d3–3-carboxamide] | 0.0233 ± 0.0005 µM | 0.0233 (≈ 7.07 ng/mL) | 0.11 ± 0.0118 (≈ 33.4 ng/mL) | > 10 | > 10 | – | –
2 | [2H]c1c(C([2H])([2H])[2H])c([2H])n2c(C(=O)NCc3ccc(C(F)(F)F)cc3)c(C)nc2c1[2H] [Compound 30, 2-Methyl-6-(methyl-d3)-N-(4-(trifluoromethyl)benzyl)imidazo [1,2-a]pyridine-5,7,8-d3-3-carboxamide] | 0.0091 ± 0.0058 µM | 0.0091 (≈ 3.22 ng/mL) | 0.0038 ± 0.0013 (≈ 1.34 ng/mL) | > 10 | > 50 | – | CLint [5]: 70 ml/min/g protein; CLint [6]: 116 ml/min/g protein; CLint [7]: 26 ml/min/g protein; CLint [8]: 28 mL/min/g protein; CLint [9]: 64 mL/min/g protein; half-life at 2 μM (in vitro [10]): 20 min; half-life at 2 μM (in vitro [11]): 12 min; half-life at 2 μM (in vitro [12]): 53 min; half-life at 2 μM (in vitro [13]): 50 min; half-life at 2 μM (in vitro [14]): 22 min
3 | [2H]c1c(C([2H])([2H])[2H])c([2H])n2c(C(=O)NCc3ccc(Cl)cc3)c(C)nc2c1[2H] [Compound 31, N-(4-Chlorobenzyl)-2-methyl-6-(methyl-d3)imidazo[1,2-a]pyridine-5,7,8-d3-3-carboxamide] | 0.012 ± 0.0015 µM | 0.012 (≈ 3.84 ng/mL) | 0.0231 (≈ 7.39 ng/mL) | 7.09 (≈ 2270 ng/mL) | > 10 | 0.0231 ± 0.0071 µM | –
4 | [2H]c1c(C([2H])([2H])[2H])c([2H])n2c(C(=O)NCc3ccc(S(F)(F)(F)(F)F)cc3)c(C)nc2c1[2H] [Compound 32, 2-Methyl-6-(methyl-d3)-N-(4-(pentafluoro-λ^6-sulfaneyl)benzyl) imidazo[1,2-a]pyridine-5,7,8-d3-3-carboxamide] | 0.0029 µM and 0.0029 ± 0.0005 µM | – | – | – | – | 0.0059 µM and 0.0059 ± 0.0003 µM | MIC (range over both media) [15]: 0.003 to 0.006 µM
5 | [2H]c1c(C([2H])([2H])[2H])c([2H])n2c(C(=O)NCc3ccc(S(C)(=O)=O)cc3)c(C)nc2c1[2H] [Compound 33, 2-Methyl-6-(methyl-d3)-N-(4-(methylsulfonyl)benzyl)imidazo[1,2-a]pyridine-5,7,8-d3-3-carboxamide] | – | 0.174 ± 0.0269 (≈ 63.2 ng/mL) | 0.212 ± 0.0282 (≈ 77.1 ng/mL) | > 10 | > 10 | – | MIC (range over both media) [15]: 0.174 to 0.212 µM
6 | [2H]c1c(C([2H])([2H])[2H])c([2H])n2c(C(=O)NCc3ccc(OC(F)(F)F)cc3)c(C)nc2c1[2H] [Compound 34, 2-Methyl-6-(methyl-d3)-N-(4-(trifluoromethoxy)benzyl)imidazo [1,2-a]pyridine-5,7,8-d3-3-carboxamide] | 0.0022 ± 0.0004 µM | 0.0022 (≈ 0.813 ng/mL) | 0.0055 (≈ 2.03 ng/mL) | > 5 | > 50 | 0.0055 ± 0.0018 µM | –
7 | [2H]c1c(C([2H])([2H])[2H])c([2H])n2c(C(=O)NCc3ccc(OC)cc3)c(C)nc2c1[2H] [Compound 37, N-(4-Methoxybenzyl)-2-methyl-6-(methyl-d3)imidazo[1,2-a] pyridine-5,7,8-d3-3-carboxamide] | 0.0245 ± 0.0005 µM | 0.0245 (≈ 7.73 ng/mL) | 0.0354 (≈ 11.2 ng/mL) | > 10 | > 10 | 0.0354 ± 0.01 µM | –
8 | [2H]c1c(C([2H])([2H])[2H])c([2H])n2c(C(=O)NCc3ccc(OCC)cc3)c(C)nc2c1[2H] [Compound 38, N-(4-Ethoxybenzyl)-2-methyl-6-(methyl-d3)imidazo[1,2-a] pyridine-5,7,8-d3-3-carboxamide] | 0.0092 ± 0.0013 µM | 0.0092 (≈ 3.03 ng/mL) | 0.0236 ± 0.0104 (≈ 7.77 ng/mL) | – | – | – | –
9 | [2H]c1c(C([2H])([2H])[2H])c([2H])n2c(C(=O)NCc3ccc4c(c3)CCCO4)c(C)nc2c1[2H] [Compound 39, N-(Chroman-6-ylmethyl)-2-methyl-6-(methyl-d3)imidazo[1,2-a] pyridine-5,7,8-d3-3-carboxamide] | 0.0225 ± 0.0018 µM | 0.0225 (≈ 7.68 ng/mL) | 0.0072 (≈ 2.46 ng/mL) | – | – | 0.0072 ± 0.0004 µM | –
10 | [2H]c1c(C([2H])([2H])[2H])c([2H])n2c(C(=O)NCc3ccc4c(c3)OCCO4)c(C)nc2c1[2H] [Compound 40, N-((2,3-Dihydrobenzo[b][1,4]dioxin-6-yl)methyl)-2-methyl-6-(methyl-d3)imidazo[1,2-a]pyridine-5,7,8-d3-3-carboxamide] | 0.0101 ± 0.001 µM | 0.0101 (≈ 3.47 ng/mL) | 0.0051 (≈ 1.75 ng/mL) | – | – | 0.0051 ± 0.0016 µM | –
11 | [2H]c1c(C([2H])([2H])[2H])c([2H])n2c(C(=O)NCc3cccc(Cl)c3)c(C)nc2c1[2H] [Compound 41, N-(3-Chlorobenzyl)-2-methyl-6-(methyl-d3)imidazo[1,2-a] pyridine-5,7,8-d3-3-carboxamide] | 0.0035 ± 0.0003 µM | 0.0035 (≈ 1.12 ng/mL) | 0.0222 (≈ 7.1 ng/mL) | 4.52 (≈ 1450 ng/mL) | > 10 | 0.0222 ± 0.0057 µM | –
12 | [2H]c1c(C([2H])([2H])[2H])c([2H])n2c(C(=O)NCc3ccccc3Cl)c(C)nc2c1[2H] [Compound 42, N-(2-Chlorobenzyl)-2-methyl-6-(methyl-d3)imidazo[1,2-a] pyridine-5,7,8-d3-3-carboxamide] | 0.0134 ± 0.0022 µM | 0.0134 (≈ 4.29 ng/mL) | 0.112 (≈ 35.8 ng/mL) | 8.49 (≈ 2720 ng/mL) | > 10 | 0.112 ± 0.0195 µM | –
13 | [2H]c1c(C([2H])([2H])[2H])c([2H])n2c(C(=O)NCc3cccc(OC(F)(F)F)c3)c(C)nc2c1[2H] [Compound 43, 2-Methyl-6-(methyl-d3)-N-(3-(trifluoromethoxy)benzyl)imidazo [1,2-a]pyridine-5,7,8-d3-3-carboxamide] | – | 0.0263 ± 0.0036 (≈ 9.71 ng/mL) | 0.108 ± 0.0074 (≈ 39.9 ng/mL) | 4.92 (≈ 1820 ng/mL) | > 10 | – | fold less active than 30 ([1]; GAS media, MIC ratio versus compound 30 (printed as 4-OCF3 para)): ~ 2.9 fold; fold less active than 30 ([2]; 7H12 media, MIC ratio versus compound 30 (printed as 4-OCF3 para)): > 28 fold
14 | [2H]c1c(C([2H])([2H])[2H])c([2H])n2c(C(=O)NCc3cccc(OC)c3)c(C)nc2c1[2H] [Compound 45, N-(3-Methoxybenzyl)-2-methyl-6-(methyl-d3)imidazo[1,2-a] pyridine-5,7,8-d3-3-carboxamide] | 0.0205 ± 0.0004 µM | 0.0205 (≈ 6.47 ng/mL) | 0.105 (≈ 33.1 ng/mL) | – | – | 0.105 ± 0.0191 µM | fold less active than 37 ([2]; 7H12 media, MIC ratio versus para isomer 37): 3 fold
15 | [2H]c1c(C([2H])([2H])[2H])c([2H])n2c(C(=O)NCc3cc(F)cc(F)c3)c(C)nc2c1[2H] [Compound 46, N-(3,5-Difluorobenzyl)-2-methyl-6-(methyl-d3)imidazo[1,2-a] pyridine-5,7,8-d3-3-carboxamide] | 0.0072 ± 0.0016 µM | 0.0072 (≈ 2.31 ng/mL) | 0.0124 (≈ 3.98 ng/mL) | 6.91 (≈ 2220 ng/mL) | > 10 | 0.0124 ± 0.0045 µM | MIC (range over both media) [15]: 0.007 to 0.012 µM
16 | [2H]c1c(C([2H])([2H])[2H])c([2H])n2c(C(=O)NCc3cc(Cl)cc(Cl)c3)c(C)nc2c1[2H] [Compound 47, N-(3,5-Dichlorobenzyl)-2-methyl-6-(methyl-d3)imidazo[1,2-a] pyridine-5,7,8-d3-3-carboxamide] | 0.0188 ± 0.0028 µM | 0.0188 (≈ 6.66 ng/mL) | 0.04 (≈ 14.2 ng/mL) | 8.87 (≈ 3140 ng/mL) | > 10 | 0.04 ± 0.013 µM | fold less active than 46 ([15]; versus 46 (3,5-difluoro)): > 2 fold
17 | [2H]c1c(C)cn2c(C(=O)NCc3ccc(C(F)(F)F)cc3)c(C([2H])([2H])[2H])nc2c1[2H] [Compound 52, 6-Methyl-2-(methyl-d3)-N-(4-(trifluoromethyl)benzyl)imidazo [1,2-a]pyridine-7,8-d2-3-carboxamide] | – | 0.0074 ± 0.0028 (≈ 2.61 ng/mL) | 0.0039 ± 0.0016 (≈ 1.37 ng/mL) | > 10 | > 50 | – | CLint [5]: 87 ml/min/g protein; CLint [6]: 116 ml/min/g protein; CLint [7]: 30 ml/min/g protein; half-life at 2 μM (in vitro [10]): 16 min; half-life at 2 μM (in vitro [11]): 12 min; half-life at 2 μM (in vitro [12]): 46 min
18 | [2H]c1c(C([2H])([2H])[2H])cn2c(C(=O)NCc3ccc(C(F)(F)F)cc3)c(C([2H])([2H])[2H])nc2c1[2H] [Compound 55, 2,6-Bis(methyl-d3)-N-(4-(trifluoromethyl)benzyl)imidazo[1,2-a] pyridine-7,8-d2-3-carboxamide] | – | 0.0096 ± 0.0026 (≈ 3.41 ng/mL) | 0.0049 ± 0.0013 (≈ 1.74 ng/mL) | > 10 | > 50 | – | CLint [5]: 42 ml/min/g protein; CLint [6]: 98 ml/min/g protein; CLint [7]: 38 ml/min/g protein; half-life at 2 μM (in vitro [10]): 33 min; half-life at 2 μM (in vitro [11]): 14 min; half-life at 2 μM (in vitro [12]): 36 min
19 | Cc1ccc2nc(C)c(C(=O)NCc3ccc(C(F)(F)F)cc3)n2c1 [Compound 57, 2,6-Bis(Methyl-d3)-N-((4-(trifluoromethyl)phenyl)methyl-d2) imidazo[1,2-a]pyridine-7,8-d2-3-carboxamide] | – | – | – | – | – | – | IC50 ([4]; read-out: Vero IC50, toxicity against Vero cells): > 50 µM
20 | CCc1nc2ccc(Cl)cn2c1C(=O)NCc1ccc(N2CCC(c3ccc(OC(F)(F)F)cc3)CC2)cc1 [Compound Q203, Telacebec, reference compound] | 0.0009 ± 0.0004 µM | 0.0009 (≈ 0.501 ng/mL) | 0.0036 (≈ 2.01 ng/mL) | > 5 | – | 0.0036 ± 0.0005 µM | –
